Data on eight compounds can be found in patent US5061495A, “Antibiotic derived from B. subtilis” (Agricultural Genetics Company Limited, priority 1988, dated 1991).

The subject of data set [1] is wheat powdery mildew (Erysiphe graminis). As to the kind of experiment: Control of wheat powdery mildew by formulated culture broths. It is filed as in vivo. Conditions: 14 days. On the procedure:
B.subtilis NCIB 12376 was grown in a yeast peptone-glucose broth at 30° C. in an orbital shaker for 72 hours. The formulants listed in Table 9 were added to samples of culture broths at the concentrations given in Table 9 and stirred until dispersed or dissolved. The formulated broths were tested for control of wheat powdery mildew (Erysiphe graminis) by spraying to run-off wheat plants (cv. Aquila) at the two leaf stage (Zadocks GS 12) prior to inoculation with an aqueous suspension of E. graminis conidia. For each formulation 20 replicate pots of plants were sprayed. Ten pots from each treatment were then thoroughly drenched with a mist bench for 4 minutes, one hour after spraying. All pots were incubated in a glasshouse for 14 days before assessment of disease levels (Table 9).

For data set [2] the following is noted: cited from earlier work.
For data set [3] the following is noted: cited from earlier work. This is another data set of the same source.

Where two headings read alike, the source gives them in different places.

On to `CC(C)(C)C(=O)C(Oc1ccc(Cl)cc1)n1cncn1` (centres unmarked) [Triadimefon], for which the “Disease Level (% leaf area infected)” value in data set [1] (drenched 4 minutes, one hour after spraying, no treatment 5.6) is reported as 0.1%; in data set [1] (undrenched, no treatment 2.0) it was 0.2%.

As for Bacillomycin L, the Partition into butanol entry in data set [2] (neutral pH) was “does not partition into butanol”. Also, the Thermostability result in data set [3] (pH 3, 14 and 23) is on record as “thermostable”; in data set [3] (pH 10, 14 and 23), “thermostable”.

Regarding Chaetomacin, the Solubility in acetone entry in data set [2] (literature) is “soluble”.

Take Fungistatin: in data set [2] (water), the “Behaviour on contact with water” value is “forms an inactive gel when contacted with water”.

Regarding Iturin A, the Thermostability entry in data set [3] (pH 3, 14 and 23) is on record as “thermostable”; in data set [3] (pH 10, 14 and 23) it was “thermostable”.

Mycobacillin: the Solubility in acetone entry in data set [2] (literature) is given as “soluble”. Moreover, the Solubility in water entry in data set [2] (pH values of 7 and below, refs. 20 and 22) is given as “insoluble”.

On to Mycosubtilin, for which, in data set [2] (literature), the Solubility in butanol entry is given as “insoluble” and the Solubility in ethanol result is listed as “insoluble”. Further, the Solubility in methanol entry in data set [2] (methanol, literature) was “insoluble”.

Regarding Rhizoctonia factor, in data set [2] (literature), the Solubility in butanol result is given as “insoluble” and the Solubility in ethanol entry is “insoluble”. Also, the Thermostability entry in data set [3] (pH 2 only, refs. 5 and 9) was “thermostable only at pH 2”.
